The results in this text go back to ChEMBL document CHEMBL4033723, “Succinamide derivatives of melampomagnolide B and their anti-cancer activities” (2017).

Assay type in all cases: functional
One experiment relates to CCRF-CEM. Put plainly: Growth inhibition of human CCRF-CEM cells after 48 hrs by sulforhodamine B assay.
In another experiment the test system is NCI-H522. Put plainly: Growth inhibition of human NCI-H522 cells after 48 hrs by sulforhodamine B assay. Particulars: NCI-H522, 48 h.
The nature of experiment [1]: Induction of apoptosis in human M9-ENL1 cells assessed as cell death after 24 hrs by Annexin V/PI or 7-AAD staining based flow cytometry. The note with it: M9-ENL1, 24 h, read-out: LC50 (the source's name).
A further experiment concerns COLO 205. Put plainly: Growth inhibition of human COLO205 cells after 48 hrs by sulforhodamine B assay. The note with it: COLO 205, 48 h.
For a further experiment, the system named is SK-OV-3. Put plainly: Growth inhibition of human SKOV3 cells after 48 hrs by sulforhodamine B assay. The note with it: SK-OV-3, 48 h.
In a further experiment the test system is MCF7. Put plainly: Growth inhibition of human MCF7 cells after 48 hrs by sulforhodamine B assay. The note with it: MCF7, 48 h.
A short description of experiment [2]: Growth inhibition of human M9-ENL1 cells after 24 hrs by trypan blue assay. Particulars: M9-ENL1, 24 h.

Structures are written as SMILES.

For `C=C1C(=O)O[C@H]2[C@H]1CC/C(COC(=O)CCC(=O)NCc1ccc(Cl)nc1)=C\CC[C@@]1(C)O[C@@H]21`, the GI50 is 2.2 µM in the experiment with CCRF-CEM; 1.6 µM with NCI-H522; 3.3 µM in the experiment with COLO 205; 28 µM in the experiment on SK-OV-3; 3.2 µM with MCF7; 6.5 µM in experiment [2]. In addition, in experiment [1], the CC50 worked out at 14 µM.
